Patent US9682976B2, “Protein kinase C inhibitors and uses thereof” (Rigel Pharmaceuticals, Inc., priority 2012, dated 2017)

Test system: PKC mediated IL-2 production
Assay: IL-2 ELISA, human primary T cell, anti CD3+CD28+
Assay type: cell-based
Details: Homo sapiens, T-cell, 24 h, human primary T cells stimulated with αCD3 and αCD28, 24 hours
Method: Compounds 1-328 were tested in a whole cell functional assay for PKC mediated IL-2 production as follows. Human primary T cell isolation and culture: Human primary T cells were prepared as follows. Whole blood was obtained from a healthy volunteer, mixed 1:1 with PBS, layered on to Ficoll Hypaque (Amersham Pharmacia Biotech, Piscataway, N.J., Catalog #17-1440-03) in 2:1 blood/PBS:ficoll ratio and centrifuged for 30 minutes at 4° C. at 1750 rpm. The cells at the serum: ficoll interface were recovered and washed twice with 5 volumes of PBS. These freshly isolated human peripheral blood mononuclear cells were cultured in Yssel's medium containing 40 U/ml IL2 in a flask pre-coated with […] αCD3 and 5 μg/ml αCD28 (Anti-Human CD3, BD Pharmingen Catalog #555336, Anti-Human CD28, Beckman Coulter Catalog #IM1376). The cells were stimulated for 3-4 days, then transferred to a fresh flask and maintained in RPMI (RPMI-1640 with L-Glutamine; Mediatech, Inc., Herndon Va., cat. #10-040-CM) with 10% FBS and 40 U/ml IL-2. The primary T-cells were then washed twice with PBS to remove the IL-2.
Primary T cell stimulation and IL2 ELISA: Human primary T cells (100,000 cells per well) were pre-incubated with or without test compound in Yssel's medium for 1 hour at 37° C. Cells were then stimulated by transferring them to round-bottom 96-well plates pre-coated with […] αCD3 and 5 μg/ml αCD28. For counter assay, cells were instead stimulated by adding 8× stock solutions of PMA and ionomycin in Yssels (for final concentrations of 0.5 ng/ml PMA and 0.1 uM ionomycin, both from Calbiochem). Cells were incubated at 37° C. for 24 hours before 100 μL supernatants were harvested for quantification of IL-2 by ELISA using Human IL-2 Duoset ELISA Kit from R and D Systems, Cat. # DY202E.

EC50 | Compound
500 to 1000 nM | Cn1nnn(-c2cc(Nc3ncc(F)c(N[C@H]4C[C@H]5CCCN5C(C)(C)C4)n3)c(F)cc2C2CC2)c1=O [Compound 18, 1-(5-(4-((7S,8aR)-Octahydro-5,5-dimethylindolizin-7ylamino)-5-fluoropyrimidin-2-ylamino)-2-cyclopropyl-4-fluorophenyl)-4-methyl-1H-tetrazol-5(4H)-one]
100 to 500 nM | CN(C)CCOc1cc(F)c(Nc2ncc(F)c(N[C@@H]3C[C@@H]4CCCN4C(C)(C)C3)n2)cc1-n1nnn(C)c1=O [Compound 192, 1-(2-(2-(dimethylamino)ethoxy)-5-((4-(((7R,8aS)-5,5-dimethyloctahydroindolizin-7-yl)amino)-5-fluoropyrimidin-2-yl)amino)-4-fluorophenyl)-4-methyl-1,4-dihydro-5H-tetrazol-5-one]
100 to 500 nM | Cn1nnn(-c2cc(Nc3ncc(F)c(NC4CC5CCCN5C(C)(C)C4)n3)ccc2OC2CCOCC2)c1=O (stereo not drawn) [Compound 51, 1-(5-(5-fluoro-4-(octahydro-5,5-dimethylindolizin-7-ylamino)pyrimidin-2-ylamino)-2-(tetrahydro-2H-pyran-4-yloxy)phenyl)-4-methyl-1H-tetrazol-5(4H)-one]
100 to 500 nM | Cn1nnn(-c2cc(Nc3ncc(F)c(N[C@@H]4C[C@@H]5CCCN5C(C)(C)C4)n3)c(F)cc2OCCNC(=O)OC(C)(C)C)c1=O [Compound 226, tert-butyl (2-(4-((4-(((7R,8aS)-5,5-dimethyloctahydroindolizin-7-yl)amino)-5-fluoropyrimidin-2-yl)amino)-5-fluoro-2-(4-methyl-5-oxo-4,5-dihydro-1H-tetrazol-1-yl)phenoxy)ethyl)carbamate]
100 to 500 nM | CC1(C)C[C@H](Nc2nc(Nc3ccc(O)c(-n4cnnn4)c3)ncc2F)C[C@@H]2CCCN21 [Compound 196, 4-((4-(((7R,8aS)-5,5-dimethyloctahydroindolizin-7-yl)amino)-5-fluoropyrimidin-2-yl)amino)-2-(1H-tetrazol-1-yl)phenol]
< 100 nM | Cn1nnn(-c2cc(Nc3ncc(Cl)c(N[C@@H]4C[C@@H]5CCCN5C(C)(C)C4)n3)c(F)cc2OCCO)c1=O [Compound 237, 1-(5-((5-chloro-4-(((7R,8aS)-5,5-dimethyloctahydroindolizin-7-yl)amino)pyrimidin-2-yl)amino)-4-fluoro-2-(2-hydroxyethoxy)phenyl)-4-methyl-1,4-dihydro-5H-tetrazol-5-one]
500 to 1000 nM | CN1C(=O)C(C)(C)Oc2ccc(Nc3ncc(F)c(N[C@@H]4C[C@@H]5CCCN5C(C)(C)C4)n3)cc21 [Compound 318]
100 to 500 nM | CC1(C)C[C@H](Nc2nc(Nc3ccc(N4CCOCC4)c(C#N)c3)ncc2F)C[C@@H]2CCCN21 [Compound 106, 5-((4-(((7R,8aS)-5,5-dimethyloctahydroindolizin-7-yl)amino)-5-fluoropyrimidin-2-yl)amino)-2-morpholinobenzonitrile]
< 100 nM | CC1(C)C[C@H](Nc2nc(Nc3ccc(OCCO)c(-n4cnnn4)c3)ncc2Cl)C[C@@H]2CCCN21 [Compound 223, 2-(4-((5-chloro-4-(((7R,8aS)-5,5-dimethyloctahydroindolizin-7-yl)amino)pyrimidin-2-yl)amino)-2-(1H-tetrazol-1-yl)phenoxy)ethan-1-ol]
> 10000 nM | CO[C@@H](C)COc1cc(F)c(Nc2ncc(Cl)c(N(C[C@H](C)OC)[C@@H]3C[C@@H]4CCCN4C(C)(C)C3)n2)cc1-n1nnn(C)c1=O [Compound 239, 1-(5-((5-chloro-4-(((7R,8aS)-5,5-dimethyloctahydroindolizin-7-yl)((S)-2-methoxypropyl)amino)pyrimidin-2-yl)amino)-4-fluoro-2-((S)-2-methoxypropoxy)phenyl)-4-methyl-1,4-dihydro-5H-tetrazol-5-one]
100 to 500 nM | Cc1ccc(Nc2ncc(F)c(N[C@@H]3C[C@@H]4CCCN4C(C)(C)C3)n2)cc1-n1nnn(CCO)c1=O [Compound 275, 1-(5-(4-((7R,8aS)-octahydro-5,5-dimethylindolizin-7-ylamino)-5-fluoropyrimidin-2-ylamino)-2-methylphenyl)-4-(2-hydroxyethyl)-1H-tetrazol-5(4H)-one]
100 to 500 nM | CC1CN(c2ccc(Nc3ncc(F)c(N[C@H]4CCN5[C@@H](CCC5(C)C)C4)n3)cc2OC(F)F)CC(C)O1 (stereo partly drawn) [Compound 300, N2-(3-(Difluoromethoxy)-4-(2,6-dimethylmorpholino)phenyl)-N4-((7S,8aS)-3,3-dimethyloctahydroindolizin-7-yl)-5-fluoropyrimidine-2,4-diamine]
100 to 500 nM | Cn1nc2n(c1=O)-c1cc(Nc3ncc(F)c(N[C@@H]4C[C@@H]5CCCN5C(C)(C)C4)n3)ccc1OC21CCOCC1 [Compound 283, 5-fluoro-N2-(1H-2,4-dihydron-spiro(2H-1,4-benzoxazine-4,4′-[4H]pyran)-2-methyl-[1,2,4]triazolo[3,4-c][1,4]benzoxazin-1-one-8-yl)-N4-((7R,8aS)-octahydro-5,5-dimethylindolizin-7-yl)pyrimidine-2,4-diamine]
< 100 nM | CC1(C)C[C@H](Nc2nc(Nc3cc(-n4cnnn4)c(C4CC4)cc3F)ncc2Cl)C[C@@H]2CCCN21 [Compound 146, 5-chloro-N2-(4-cyclopropyl-2-fluoro-5-(1H-tetrazol-1-yl)phenyl)-N4-((7R,8aS)-5,5-dimethyloctahydroindolizin-7-yl)pyrimidine-2,4-diamine]
100 to 500 nM | CC1(C)C[C@H](Nc2nc(Nc3ccc(OCCO)c(Cl)c3)ncc2F)C[C@@H]2CCCN21 [Compound 133, 2-(2-chloro-4-((4-(((7R,8aS)-5,5-dimethyloctahydroindolizin-7-yl)amino)-5-fluoropyrimidin-2-yl)amino)phenoxy)ethan-1-ol]
< 100 nM | CC1(C)C[C@H](Nc2nc(Nc3cc(-n4nnnc4C4CC4)c(OC4COC4)cc3F)ncc2F)C[C@@H]2CCCN21 [Compound 255, N2-(5-(5-cyclopropyl-1H-tetrazol-1-yl)-2-fluoro-4-(oxetan-3-yloxy)phenyl)-5-fluoro-N4-((7R,8aS)-octahydro-5,5-dimethylindolizin-7-yl)pyrimidine-2,4-diamine]
< 100 nM | CC1(C)C[C@H](Nc2nc(Nc3ccc(C4CC4)c(C#N)c3)ncc2Cl)C[C@@H]2CCCN21 [Compound 155, 5-((5-chloro-4-(((7R,8aS)-5,5-dimethyloctahydroindolizin-7-yl)amino)pyrimidin-2-yl)amino)-2-cyclopropylbenzonitrile]
1000 to 10000 nM | Cn1nnn(-c2cc(Nc3ncc(F)c(N[C@@H]4C[C@@H]5CCCN5C(C)(C)C4)n3)ccc2N2CC(O)C2)c1=O [Compound 328, 1-(5-(4-((7R,8aS)-octahydro-5,5-dimethylindolizin-7-ylamino)-5-fluoropyrimidin-2-ylamino)-2-(3-hydroxyazetidin-1-yl)phenyl)-4-methyl-1H-tetrazol-5(4H)-one]
100 to 500 nM | CC1(C)CC[C@H]2C[C@@H](Nc3nc(Nc4ccc(OCCO)c(OC(F)F)c4)ncc3F)CCN21 [Compound 303, 2-(2-(Difluoromethoxy)-4-((4-(((7S,8aS)-3,3-dimethyloctahydroindolizin-7-yl)amino)-5-fluoropyrimidin-2-yl)amino)phenoxy)ethan-1-ol]
< 100 nM | Cc1nnnn1-c1ccc(F)c(Nc2ncc(Cl)c(N[C@@H]3C[C@@H]4CCCN4C(C)(C)C3)n2)c1 [Compound 150, 5-chloro-N4-((7R,8aS)-5,5-dimethyloctahydroindolizin-7-yl)-N2-(2-fluoro-5-(5-methyl-1H-tetrazol-1-yl)phenyl)pyrimidine-2,4-diamine]
500 to 1000 nM | CC1(C)C[C@H](Nc2nc(Nc3cccc(-n4nnnc4S(C)(=O)=O)c3)ncc2F)C[C@@H]2CCCN21 [Compound 269, 5-fluoro-N4-((7R,8aS)-octahydro-5,5-dimethylindolizin-7-yl)-N2-(3-(5-(methylsulfonyl)-1H-tetrazol-1-yl)phenyl)pyrimidine-2,4-diamine]

Same assay, conditions: human primary T cells stimulated with αCD3 and αCD28, 24 hours

EC50 | Compound
500 to 1000 nM | Cn1nc2n(c1=O)-c1cc(Nc3ncc(F)c(N[C@@H]4C[C@@H]5CCCN5C(C)(C)C4)n3)ccc1OCC2(C)O (single isomer, unassigned) [Compound 294]
1000 to 10000 nM | COc1cc(Nc2ncc(F)c(N[C@H]3C[C@H]4CCCN4C(C)(C)C3)n2)cc(-n2nnnc2C)c1 (single isomer, unassigned) [Compound 11, (R/S, S/R, R/R, S/S)-5-fluoro-N4-(octahydro-5,5-dimethylindolizin-7-yl)N2-(3-methoxy-5-(5-methyl-1H-tetrazol-1-yl)phenyl)pyrimidine-2,4-diamine]
500 to 1000 nM | CC(C)N1CCC(Oc2ccc(Nc3ncc(F)c(N[C@@H]4C[C@H]5CCCN5C(C)(C)C4)n3)cc2OC(F)F)CC1 (single isomer, unassigned) [Compound 8, (R/S, S/R, R/R, S/S)-N^2-(4-(1-isopropylpiperidin-4-yloxy)-3-(difluoromethoxy)phenyl)-5-fluoro-N^4-(octahydro-5,5-dimethylindolizin-7-yl)pyrimidine-2,4-diamine]
